Measurements from US20060141546A1, “Bacterial test method by glycated label binding” (priority 2002, published 2006).

How the values were obtained:
[1] = tested on: bacteria (Sf—Staph. faec.; Ec: E. coli); experiment: Effect of various cations on ALP binding to bacteria (Example 8, FIGS. 13-14); details: FIG. 13; for effect of various cations on ALP-binding (in words): cations 2 mM, bovine intestinal mucosa ALP
Description: (§1) Bacterial cells (1 to 4.5×10^7 cells/mL) were washed twice with water after centrifugation to separate cells into a packed pellet from the supernatant liquid. The washed cells in pellet form were suspended in 20 μL of EPPS buffer (50 mM at pH 8.0) and 30 μL of water. […]
(§2) The mixture of glycated protein and bacterial cells was left at 25° C. for 15 minutes. The mixture was then centrifuged at 30,000 rpm for 30 minutes after which the bacterial cells formed a pellet at the bottom of the tube and was washed with water 4-5 times (50 μL). Centrifugation allows separation of glycoprotein bound to the bacteria cells from unbound glycated protein(s).
(§3) After washing, the bacterial pellets were suspended in 50 μL of borate buffer (25 mM at pH 9.0). A 5 μL aliquot of the suspension was assayed for detection of ALP binding by adding 5 μL of para-nitrophenol phosphate (PNPP, 100 mM), 50 μL sodium borate buffer (25 mM at pH 9.0) and 140 μL of water. […] The color was read at 405 nm using an ELISA plate reader between 15-30 min; the absorbance is directly proportional to the amount of ALP bound to the bacteria cell.

E. coli [2] = experiment: ALP binding to bacteria in presence of carbohydrates, polysaccharides, glycopeptides and lectins (Example 5, Table 3); details: ALP 100 mUnits plus 15 μg of additive
Description: (§4) Bacterial cells (1 to 4.5×10^7 cells/mL) were washed twice with water after centrifugation to separate cells into a packed pellet from the supernatant liquid. The washed cells in pellet form were suspended in 20 μl of EPPS buffer (50 mM at pH 8.0) and 30 μL of water. Hemoglobin (20 μg) was added as a blocking additive. Alkaline phosphatase (ALP) (100 mUnits) from bovine intestine and 15 μg of simple carbohydrates or proteoglycan or lectins, were added.
as §2, with “and were” for “and was”
(§5) After washing, the bacterial pellets were suspended in 50 μL of sodium tetraborate buffer (25 mM at pH 9.5). A 5 uL aliquot of the suspension was assayed for detection of ALP binding by adding 5 μL of para-nitrophenol phosphate (PNPP, 100 mM), 50 μL sodium borate buffer (25 mM at pH 9.0) and 140 μL of water. […] The color is read at 405 nm using a ELISA plate reader between 15-30 min and the absorbance is directly proportional to the amount of ALP bound to the bacteria cell adhesions for glycated groups.

S. faec. [3] = experiment: as above; details: ALP 100 mUnits plus 15 μg of additive
Description: as §4
as §2, with “and were” for “and was”
as §5

bacteria [4] = experiment: Effect of divalent cations on ALP binding to bacteria (Example 7, Table 5, FIG. 12); details: for O.D. at 405 nm, With ALP: bacteria plus cation (CaCl2 1 mM, MgCl2 1 mM, ZnCl2 0.2 mM) with ALP; for O.D. at 405 nm, No ALP: bacteria plus cation (CaCl2 1 mM, MgCl2 1 mM, ZnCl2 0.2 mM)
Description: as §1
as §2, with “and were” for “and was”
as §3

E. coli [5] = experiment: Competitive inhibition of ALP binding to bacteria by added protein (Example 3, Table 2); details: protein 2-40 μg added with ALP 2 μg
Description: (§6) Less than 20% was no inhibition (NI) and greater than 90% was complete inhibition (CI) with a binding constant great than ALP.
(§7) Bacterial cells (1 to 4.5×10^7 cells/mL) were washed twice with water after centrifugation to separate cells into a packed pellet from the supernatant liquid. The washed cells in pellet form were suspended in 20 ul of N-2-hydroxyethyl piperazine-N′-[3-propane sulfonic acid] EPPS buffer (50 mM at pH 8.0) and 30 μL of water. Glycated protein(s) (2-40 μg) were added. In some cases a glycated protein (2-40 μg) and bovine intestinal alkaline phosphatase (ALP) (2 μg or […]) were added and the binding of the glycated protein measured by the reduction of binding of ALP.
as §2, with “and were” for “and was”
as §5, with “borate” for “sodium tetraborate”, “9.0).” for “9.5).”, “μL” for “uL”, “min. The” for “min and the”
(§8) Only a protein binding to the cell adhesions for glycated groups causes the inhibition of the binding of ALP by bacteria. A protein binding to the cell adhesions for glycated groups provides a positive number in Table 2.

S. faec. [6] = experiment: as above; details: protein 2-40 μg added with ALP 2 μg
Description: as §6, §7
as §2, with “and were” for “and was”
as §5, with “borate” for “sodium tetraborate”, “9.0).” for “9.5).”, “μL” for “uL”, “min. The” for “min and the”
as §8

bacteria [7] = experiment: Competitive inhibition of ALP binding to bacteria (Example 3); details: for binding to bacteria compared with ALP: from complete inhibition of ALP binding
Description: as §6, §7
as §2, with “and were” for “and was”
as §5, with “borate” for “sodium tetraborate”, “9.0).” for “9.5).”, “μL” for “uL”, “min. The” for “min and the”
as §8

[8] = buffers for ALP determinations; cited from earlier work

[Co+2] [Co^+2]
effect of various cations on ALP-binding (in words) [1]: stimulate ALP-binding

Concanavalin A
absorbance (405 nm) of ALP bound to bacteria (E. coli [2]): 0.0
absorbance (405 nm) of ALP bound to bacteria (S. faec. [3]): 0.1

Chondroitin sulfate A
absorbance (405 nm) of ALP bound to bacteria (E. coli [2]): 1.1
absorbance (405 nm) of ALP bound to bacteria (S. faec. [3]): 1.3

[Cl-].[Cl-].[Mg+2] [MgCl2]
O.D. at 405 nm, With ALP (bacteria [4]): 0.44 O.D.
O.D. at 405 nm, No ALP (bacteria [4]): 0.20 O.D.

Hemoglobin [reference compound]
inhibition of the binding of ALP by bacteria (E. coli [5]): <20%
inhibition of the binding of ALP by bacteria (S. faec. [6]): <20%
inhibition of the binding of ALP by bacteria (in words) (bacteria [7]): did not inhibit the binding of ALP

OCCNCCO [diethanolamine]
pKa [8]: 8.7

O=C(O)CN(CCN(CC(=O)O)CC(=O)O)CC(=O)O [EDTA, reference compound]
ALP activity in the presence of EDTA ([1]; EDTA 10 mM): total inhibition

C[C@H](O)[C@@H](O)[C@@H](O)[C@H](O)C=O [Fucose]
absorbance (405 nm) of ALP bound to bacteria (E. coli [2]): 2.0
absorbance (405 nm) of ALP bound to bacteria (S. faec. [3]): 2.3

CC(=O)N[C@@H]1[C@@H](O)[C@@H](O)[C@@H](CO)O[C@H]1O [GalNAc, N-Acetyl-β-D-Galactosamine]
absorbance (405 nm) of ALP bound to bacteria (E. coli [2]): 1.8
absorbance (405 nm) of ALP bound to bacteria (S. faec. [3]): 1.9

O=C[C@H](O)[C@@H](O)[C@H](O)[C@H](O)C(=O)O [Glucuronic acid]
absorbance (405 nm) of ALP bound to bacteria (E. coli [2]): 1.9
absorbance (405 nm) of ALP bound to bacteria (S. faec. [3]): 2.0

Chondroitin sulfate B
absorbance (405 nm) of ALP bound to bacteria (E. coli [2]): 0.9
absorbance (405 nm) of ALP bound to bacteria (S. faec. [3]): 0.5

Transferrin: glycated protein, simple carbohydrates
inhibition of the binding of ALP by bacteria (E. coli [5]): 75%
inhibition of the binding of ALP by bacteria (S. faec. [6]): 75%

CC(N)(CO)CO [2-amino-2-methyl-1,3-propanediol]
pKa [8]: 8.6

Tamm-Horsfall protein (THP): glycated protein with one high-mannose and five complex or hybrid type chains
inhibition of the binding of ALP by bacteria (E. coli [5]): 40%
inhibition of the binding of ALP by bacteria (S. faec. [6]): 49%

CC(=O)N[C@@H]1[C@@H](O)[C@H](O)[C@@H](CO)O[C@H]1O [GlcNAc, N-Acetyl-β-D-Glucosamine]
absorbance (405 nm) of ALP bound to bacteria (E. coli [2]): 2.0
absorbance (405 nm) of ALP bound to bacteria (S. faec. [3]): 2.0

polyarginine [reference compound]
inhibition of the binding of ALP by bacteria (in words) (bacteria [7]): not found to inhibit ALP activity

Hyaluronic Acid
absorbance (405 nm) of ALP bound to bacteria (E. coli [2]): 1.8
absorbance (405 nm) of ALP bound to bacteria (S. faec. [3]): 2.0

polyhistidine [reference compound]
inhibition of the binding of ALP by bacteria (in words) (bacteria [7]): not found to inhibit ALP activity

polylysine [reference compound]
inhibition of the binding of ALP by bacteria (in words) (bacteria [7]): not found to inhibit ALP activity

[Fe+2] [Fe^2+]
effect of various cations on ALP-binding (in words) [1]: stimulate ALP-binding

[Ca+2].[Cl-].[Cl-] [CaCl2]
O.D. at 405 nm, With ALP (bacteria [4]): 0.36 O.D.
O.D. at 405 nm, No ALP (bacteria [4]): 0.23 O.D.

α-1-glycoprotein (AGP): glycated protein with five complex or hybrid type chains
inhibition of the binding of ALP by bacteria (E. coli [5]): 86%
inhibition of the binding of ALP by bacteria (S. faec. [6]): >90%
binding to bacteria compared with ALP (bacteria [7]): better binders than ALP

CCC1(CC)C(=O)NC(=O)NC1=O [barbital]
pKa [8]: 7.44

CC(C)(N)CO [2-amino-2-methyl-1-propanol]
pKa [8]: 9.3

O=C[C@@H](O)[C@H](O)[C@@H](O)[C@H](O)C(=O)O [Iduronic acid]
absorbance (405 nm) of ALP bound to bacteria (E. coli [2]): 1.9
absorbance (405 nm) of ALP bound to bacteria (S. faec. [3]): 2.0

[Cu+2] [Cu^2+]
effect of various cations on ALP-binding (in words) [1]: stimulate ALP-binding

α-1-Antitrypsin: glycated protein as received from suppliers
inhibition of the binding of ALP by bacteria (E. coli [5]): 84%
inhibition of the binding of ALP by bacteria (S. faec. [6]): 74%

C[C@@H](O[C@H]1[C@H](O)[C@@H](CO)OC(O)[C@@H]1N)C(=O)O (some centres unmarked) [Muramic Acid]
absorbance (405 nm) of ALP bound to bacteria (E. coli [2]): 1.8
absorbance (405 nm) of ALP bound to bacteria (S. faec. [3]): 2.1

B1: Myoglobin: non-glycated protein as received from suppliers (protein, UniProt P02144 2-154, looked up)
Myoglobin: GLSDGEWQLVLNVWGKVEADIPGHGQEVLIRLFKGHPETLEKFDKFKHLKSEDEMKASEDLKKHGATVLTALGGILKKKGHHEAEIKPLAQSHATKHKIPVKYLEFISECIIQVLQSKHPGDFGADAQGAMNKALELFRKDMASNYKELGFQG
inhibition of the binding of ALP by bacteria (E. coli [5]): <20%
inhibition of the binding of ALP by bacteria (S. faec. [6]): <20%
inhibition of the binding of ALP by bacteria (in words) (bacteria [7]): did not inhibit the binding of ALP

B2: Uristatin: urinary trypsin inhibitor lacking the O-linked glycoconjugate chain (protein, UniProt P02760 206-352, looked up)
Inter-alpha-trypsin inhibitor …: AVLPQEEEGSGGGQLVTEVTKKEDSCQLGYSAGPCMGMTSRYFYNGTSMACETFQYGGCMGNGNNFVTEKECLQTCRTVAACNLPIVRGPCRAFIQLWAFDAVKGKCVLFPYGGCQGNGNKFYSEKECREYCGVPGDGDEELLRFSN
modifications: Inter-alpha-trypsin inhibitor light chain lacks O-linked glycan chain
inhibition of the binding of ALP by bacteria (E. coli [5]): >90%
inhibition of the binding of ALP by bacteria (S. faec. [6]): >90%
effect of fragmentation of the peptide chain on inhibition of ALP binding (bacteria [7]; fragmentation with protease): did not impact the inhibition
binding to bacteria compared with ALP (bacteria [7]): better binders than ALP

B3: Bikunin: urinary trypsin inhibitor with two glycoconjugate chains and two Kunitz inhibitor domains (protein, UniProt P02760 206-352, looked up)
Inter-alpha-trypsin inhibitor …: B2 Inter-alpha-trypsin inhibitor …
modifications: Inter-alpha-trypsin inhibitor light chain
inhibition of the binding of ALP by bacteria (E. coli [5]): >90%
inhibition of the binding of ALP by bacteria (S. faec. [6]): >90%
binding to bacteria compared with ALP (bacteria [7]): better binders than ALP

B4: beta-2-Glycoprotein: glycoprotein with one N-link complex type chain (protein, UniProt P02749 20-345, looked up)
Beta-2-glycoprotein 1: GRTCPKPDDLPFSTVVPLKTFYEPGEEITYSCKPGYVSRGGMRKFICPLTGLWPINTLKCTPRVCPFAGILENGAVRYTTFEYPNTISFSCNTGFYLNGADSAKCTEEGKWSPELPVCAPIICPPPSIPTFATLRVYKPSAGNNSLYRDTAVFECLPQHAMFGNDTITCTTHGNWTKLPECREVKCPFPSRPDNGFVNYPAKPTLYYKDKATFGCHDGYSLDGPEEIECTKLGNWSAMPSCKASCKVPVKKATVVYQGERVKIQEKFKNGMLHGDKVSFFCKNKEKKCSYTEDAQCIDGTIEVPKCFKEHSSLAFWKTDASDVKPC
inhibition of the binding of ALP by bacteria (E. coli [5]): 74%
inhibition of the binding of ALP by bacteria (S. faec. [6]): 61%
